Test results published in PubChem BioAssay (NCI).
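Compound exposure: 48 hours, 5 concentrations, 96-well plates. The concentration for full growth arrest is given as TGI.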

Experiments:
Assay in all cases: DTP human tumour cell line panel, 48 h
HL-60(TB) leukemia = tested on: HL-60(TB) leukemia
SK-MEL-28 melanoma = tested on: SK-MEL-28 melanoma
IGROV1 ovarian = tested on: IGROV1 ovarian
NCI-H23 lung = tested on: NCI-H23 lung
SK-OV-3 ovarian = tested on: SK-OV-3 ovarian
MOLT-4 leukemia = tested on: MOLT-4 leukemia
HT29 colon = tested on: HT29 colon
NCI-H460 lung = tested on: NCI-H460 lung
OVCAR-8 ovarian = tested on: OVCAR-8 ovarian
SK-MEL-5 melanoma = tested on: SK-MEL-5 melanoma
HCT-116 colon = tested on: HCT-116 colon
M14 melanoma = tested on: M14 melanoma
MCF7 breast = tested on: MCF7 breast
K-562 leukemia = tested on: K-562 leukemia
TK-10 renal = tested on: TK-10 renal
MDA-MB-231 breast = tested on: MDA-MB-231 breast
DU-145 prostate = tested on: DU-145 prostate
HCC-2998 colon = tested on: HCC-2998 colon
BT-549 breast = tested on: BT-549 breast
SF-539 CNS = tested on: SF-539 CNS
UACC-62 melanoma = tested on: UACC-62 melanoma
SN12C renal = tested on: SN12C renal
SF-268 CNS = tested on: SF-268 CNS
UACC-257 melanoma = tested on: UACC-257 melanoma
SF-295 CNS = tested on: SF-295 CNS
SR leukemia = tested on: SR leukemia
NCI-H522 lung = tested on: NCI-H522 lung
UO-31 renal = tested on: UO-31 renal
EKVX NSCLC = tested on: EKVX NSCLC
PC-3 prostate = tested on: PC-3 prostate
SW-620 colon = tested on: SW-620 colon
HOP-62 NSCLC = tested on: HOP-62 NSCLC
OVCAR-4 ovarian = tested on: OVCAR-4 ovarian
OVCAR-5 ovarian = tested on: OVCAR-5 ovarian
OVCAR-3 ovarian = tested on: OVCAR-3 ovarian
HCT-15 colon = tested on: HCT-15 colon
786-0 renal = tested on: 786-0 renal
LOX IMVI melanoma = tested on: LOX IMVI melanoma
A549 NSCLC = tested on: A549 NSCLC
T-47D breast = tested on: T-47D breast
NCI/ADR-RES ovarian = tested on: NCI/ADR-RES ovarian
COLO 205 colon = tested on: COLO 205 colon
MDA-MB-435 = tested on: MDA-MB-435
U251 CNS = tested on: U251 CNS
KM12 colon = tested on: KM12 colon
CCRF-CEM leukemia = tested on: CCRF-CEM leukemia
HOP-92 NSCLC = tested on: HOP-92 NSCLC
SNB-75 CNS = tested on: SNB-75 CNS
SNB-19 CNS = tested on: SNB-19 CNS
MDA-N = tested on: MDA-N
NCI-H226 lung = tested on: NCI-H226 lung
ACHN renal = tested on: ACHN renal
RXF 393 renal = tested on: RXF 393 renal
MALME-3M melanoma = tested on: MALME-3M melanoma
SK-MEL-2 melanoma = tested on: SK-MEL-2 melanoma
RPMI-8226 leukemia = tested on: RPMI-8226 leukemia
A498 renal = tested on: A498 renal
CAKI-1 renal = tested on: CAKI-1 renal

COc1cccc(-c2nc(-c3cnccn3)n(C3OC(CO)C(O)C3O)n2)c1 (stereo not drawn)
TGI (HL-60(TB) leukemia): > 100 µM | TGI (SK-MEL-28 melanoma): > 100 µM | TGI (IGROV1 ovarian): > 100 µM | TGI (NCI-H23 lung): > 100 µM | TGI (SK-OV-3 ovarian): > 100 µM | TGI (MOLT-4 leukemia): > 100 µM | TGI (HT29 colon): > 100 µM | TGI (NCI-H460 lung): > 100 µM | TGI (OVCAR-8 ovarian): > 100 µM | TGI (SK-MEL-5 melanoma): > 100 µM | TGI (HCT-116 colon): > 100 µM | TGI (M14 melanoma): > 100 µM | TGI (MCF7 breast): > 100 µM | TGI (K-562 leukemia): > 100 µM | TGI (TK-10 renal): > 100 µM | TGI (MDA-MB-231 breast): > 100 µM | TGI (DU-145 prostate): > 100 µM | TGI (HCC-2998 colon): > 100 µM | TGI (BT-549 breast): > 100 µM | TGI (SF-539 CNS): > 100 µM | TGI (UACC-62 melanoma): > 100 µM | TGI (SN12C renal): > 100 µM | TGI (SF-268 CNS): > 100 µM | TGI (UACC-257 melanoma): > 100 µM | TGI (SF-295 CNS): > 100 µM | TGI (SR leukemia): > 100 µM | TGI (NCI-H522 lung): > 100 µM | TGI (UO-31 renal): > 100 µM | TGI (EKVX NSCLC): > 100 µM | TGI (PC-3 prostate): > 100 µM | TGI (SW-620 colon): > 100 µM | TGI (HOP-62 NSCLC): > 100 µM | TGI (OVCAR-4 ovarian): > 100 µM | TGI (OVCAR-5 ovarian): > 100 µM | TGI (OVCAR-3 ovarian): > 100 µM | TGI (HCT-15 colon): > 100 µM | TGI (786-0 renal): > 100 µM | TGI (LOX IMVI melanoma): > 100 µM | TGI (A549 NSCLC): > 100 µM | TGI (T-47D breast): > 100 µM | TGI (NCI/ADR-RES ovarian): > 100 µM | TGI (COLO 205 colon): > 100 µM | TGI (MDA-MB-435): > 100 µM | TGI (U251 CNS): > 100 µM | TGI (KM12 colon): > 100 µM | TGI (CCRF-CEM leukemia): > 100 µM | TGI (HOP-92 NSCLC): > 100 µM | TGI (SNB-75 CNS): > 100 µM | TGI (SNB-19 CNS): > 100 µM | TGI (MDA-N): > 100 µM

CCOC(=O)c1csc(NC(=O)CN2CCN(c3ccccc3)CC2)n1
TGI (HL-60(TB) leukemia): > 100 µM | TGI (SK-MEL-28 melanoma): > 100 µM | TGI (IGROV1 ovarian): > 100 µM | TGI (NCI-H23 lung): > 100 µM | TGI (SK-OV-3 ovarian): > 100 µM | TGI (MOLT-4 leukemia): > 100 µM | TGI (HT29 colon): > 100 µM | TGI (NCI-H460 lung): > 100 µM | TGI (OVCAR-8 ovarian): > 100 µM | TGI (SK-MEL-5 melanoma): > 100 µM | TGI (M14 melanoma): > 100 µM | TGI (NCI-H226 lung): > 100 µM | TGI (MCF7 breast): > 100 µM | TGI (K-562 leukemia): > 100 µM | TGI (TK-10 renal): > 100 µM | TGI (MDA-MB-231 breast): > 100 µM | TGI (DU-145 prostate): > 100 µM | TGI (HCC-2998 colon): > 100 µM | TGI (UACC-62 melanoma): > 100 µM | TGI (ACHN renal): > 100 µM | TGI (RXF 393 renal): > 100 µM | TGI (UACC-257 melanoma): > 100 µM | TGI (SF-295 CNS): > 100 µM | TGI (SR leukemia): > 100 µM | TGI (UO-31 renal): > 100 µM | TGI (EKVX NSCLC): > 100 µM | TGI (MALME-3M melanoma): > 100 µM | TGI (PC-3 prostate): > 100 µM | TGI (SW-620 colon): > 100 µM | TGI (HOP-62 NSCLC): > 100 µM | TGI (OVCAR-4 ovarian): > 100 µM | TGI (SK-MEL-2 melanoma): > 100 µM | TGI (OVCAR-5 ovarian): > 100 µM | TGI (OVCAR-3 ovarian): > 100 µM | TGI (HCT-15 colon): > 100 µM | TGI (LOX IMVI melanoma): > 100 µM | TGI (A549 NSCLC): > 100 µM | TGI (T-47D breast): > 100 µM | TGI (NCI/ADR-RES ovarian): > 100 µM | TGI (COLO 205 colon): > 100 µM | TGI (RPMI-8226 leukemia): > 100 µM | TGI (MDA-MB-435): > 100 µM | TGI (U251 CNS): > 100 µM | TGI (KM12 colon): > 100 µM | TGI (CCRF-CEM leukemia): > 100 µM | TGI (HOP-92 NSCLC): > 100 µM | TGI (SNB-75 CNS): > 100 µM | TGI (SNB-19 CNS): > 100 µM | TGI (MDA-N): > 100 µM | TGI (A498 renal): > 100 µM | TGI (CAKI-1 renal): > 100 µM

CS(=O)(=O)OCOS(C)(=O)=O
TGI (HL-60(TB) leukemia): > 100 µM | TGI (SK-MEL-28 melanoma): > 100 µM | TGI (IGROV1 ovarian): > 100 µM | TGI (NCI-H23 lung): > 100 µM | TGI (SK-OV-3 ovarian): > 100 µM | TGI (MOLT-4 leukemia): > 100 µM | TGI (HT29 colon): > 100 µM | TGI (NCI-H460 lung): > 100 µM | TGI (OVCAR-8 ovarian): > 100 µM | TGI (SK-MEL-5 melanoma): > 100 µM | TGI (HCT-116 colon): > 100 µM | TGI (M14 melanoma): > 100 µM | TGI (NCI-H226 lung): > 100 µM | TGI (MCF7 breast): > 100 µM | TGI (K-562 leukemia): > 100 µM | TGI (TK-10 renal): > 100 µM | TGI (MDA-MB-231 breast): > 100 µM | TGI (DU-145 prostate): > 100 µM | TGI (HCC-2998 colon): > 100 µM | TGI (BT-549 breast): > 100 µM | TGI (SF-539 CNS): > 100 µM | TGI (UACC-62 melanoma): > 100 µM | TGI (ACHN renal): > 100 µM | TGI (SN12C renal): > 100 µM | TGI (UACC-257 melanoma): > 100 µM | TGI (SF-295 CNS): > 100 µM | TGI (SR leukemia): 47.9 µM | TGI (UO-31 renal): > 100 µM | TGI (EKVX NSCLC): > 100 µM | TGI (PC-3 prostate): > 100 µM | TGI (SW-620 colon): > 100 µM | TGI (HOP-62 NSCLC): > 100 µM | TGI (OVCAR-4 ovarian): > 100 µM | TGI (SK-MEL-2 melanoma): > 100 µM | TGI (OVCAR-5 ovarian): > 100 µM | TGI (OVCAR-3 ovarian): > 100 µM | TGI (HCT-15 colon): > 100 µM | TGI (786-0 renal): > 100 µM | TGI (LOX IMVI melanoma): > 100 µM | TGI (A549 NSCLC): > 100 µM | TGI (NCI/ADR-RES ovarian): > 100 µM | TGI (COLO 205 colon): > 100 µM | TGI (RPMI-8226 leukemia): > 100 µM | TGI (MDA-MB-435): > 100 µM | TGI (U251 CNS): > 100 µM | TGI (KM12 colon): > 100 µM | TGI (CCRF-CEM leukemia): 44.5 µM | TGI (HOP-92 NSCLC): > 100 µM | TGI (SNB-19 CNS): > 100 µM | TGI (MDA-N): > 100 µM | TGI (A498 renal): > 100 µM | TGI (CAKI-1 renal): > 100 µM
